What was measured:
PDE 4 = assay: Inhibition of phosphodiesterase 4 (SPA assay, enzyme preparation from human PMNLs); type: biochemical; details: cytosolic PDE 4 fraction from human PMNLs; 0.5 μM [3H]-cAMP; 100 μM cGMP
Description: The PDE 4 activity is determined using enzyme preparations from human […] (PMNLs). Human blood (buffy coats) was anticoagulated with citrate. The platelet-rich plasma in the supernatant is separated from the erythrocytes and leucocytes by centrifuging at 700 […]g for 20 minutes at room temperature (RT). The PMNLs for the PDE 4 determination are isolated by means of a subsequent dextran sedimentation followed by a gradient centrifugation using Ficoll-Paque. After the cells have been washed twice, the erythrocytes which are still present are lysed within 6 minutes by adding 10 ml of hypotonic buffer (155 mM NH4Cl, 10 mM NaHCO3, 0.1 mM EDTA, pH=7.4) at 4° C. The PMNLs, which are still intact, are washed a further two times with PBS and lysed by ultrasonication. The supernatant obtained after centrifuging at 48 000×g at 4° C. for one hour contains the cytosolic PDE 4 fraction and is used for the PDE 4 measurements.
The phosphodiesterase activity is measured using a modified Amersham Pharmacia Biotech method, i.e. an SPA (scintillation proximity assay) assay. The reaction mixtures contain buffer (50 mM tris-HCl (pH 7.4), 5 mM MgCl2, 100 μM cGMP), varying concentrations of the inhibitors, and the corresponding enzyme preparation. The reaction is started by adding the substrate, i.e. 0.5 μM [3H]-cAMP. The final volume is 100 μl. Test substances are prepared as stock solutions in DMSO. The concentration of DMSO in the reaction mixture is 1% v/v. This DMSO concentration has no effect on PDE activity. After the reaction has been started by adding the substrate, the samples are incubated at 37° C. for 30 minutes. The reaction is stopped by adding a defined quantity of SPA beads and the samples are measured in a beta counter after one hour. The nonspecific enzyme activity (i.e. the blank) is determined in the presence of 100 μM rolipram and subtracted from the test values. The incubation mixtures for the PDE 4 assay contain 100 μM cGMP in order to inhibit any contamination of PDE 3 which may be present.

[1] = system: pulmonary eosinophil infiltration; assay: Inhibition of late-phase eosinophilia 48 h after inhalative ovalbumin challenge in actively sensitized Brown Norway rats; type: in vivo; details: 2 h prior to allergen challenge, BAL 48 h after challenge
Description: The inhibition exerted by the substances according to the invention on pulmonary eosinophil infiltration is examined in male Brown Norway rats (200-250 g) which have been actively sensitized against ovalbumin (OVA). The sensitization is effected by subcutaneously injecting a suspension of 10 μg of OVA, together with 20 mg of aluminium hydroxide as adjuvant, in 0.5 ml of physiological sodium chloride solution per animal on days 1, 14 and 21. In addition to this, each of the animals is injected at the same time with 0.25 ml of Bordetalla pertussis vaccine dilution i.p. On the 28th day of the experiment, the animals are placed individually in open 11 Plexiglass boxes which are connected to a head/nose exposure appliance. The animals are exposed to an aerosol consisting of a 1.0% suspension of ovalbumin (Allergen Challenge). The ovalbumin aerosol is generated using a compressed air (0.2 MPa)-driven nebulizer (Bird micro nebulizer, Palm Springs Calif., USA). The exposure time is 1 hour, with normal controls likewise being nebulized for 1 hour with an aerosol consisting of a 0.9% solution of sodium chloride.
48 hours after the allergen challenge, there is a massive immigration of eosinophilic granulocytes into the lungs of the animals. At this time, the animals are anaesthetized with an overdose of ethylurethane (1.5 g/kg of body weight, given i.p.) and a bronchoalveolar lavage (BAL) is carried out using 3×4 ml of Hank's balance solution. The total cell count, and the number of eosinophilic granulocytes, in the pooled BAL liquid are then determined using an automatic haemocytometer (Bayer Diagnostics Technicon H1E). For each animal, the eosinophils (EOS) in the BAL are calculated in 10^6/animal: EOS/μl×BAL recovery (ml)=EOS/animal. Two control groups (nebulization with physiological sodium chloride solution and nebulization with OVA solution) are included in each test.
The percentage inhibition of the eosinophilia in the substance-treated experimental group is calculated using the following formula: {((OVAC−SC)−(OVAD−SC))/(OVAC−SC)}×100%=% inhibition
(SC=control group treated with vehicle and challenged with 0.9% sodium chloride solution; OVAC=control group treated with vehicle and challenged with 1% of ovalbumin suspension; OVAD=experimental group treated with substance and challenged with 1% of ovalbumin suspension)
The test substances are administered 2 hours prior to the allergen challenge intraperitoneally or orally as a suspension in 10% polyethylene glycol 300 and 0.5% 5-hydroxyethyl cellulose or per inhalation as a mixture with lactose. The control groups are treated with the vehicle in accordance with the manner in which the test substance is administered.

[2] = system: pulmonary neutrophil infiltration; assay: Inhibition of lipopolysaccharide (LPS)-induced pulmonary neutrophilia in Lewis rats; type: in vivo; details: 2 h prior to LPS provocation, BAL 6 h after provocation
Description: The ability of the substances according to the invention to inhibit pulmonary neutrophil infiltration is examined in male Lewis rats (200-350 g). On the day of the experiment, the animals are placed individually in open 1 l Plexiglass boxes which are connected to a head/nose exposure appliance. The animals are exposed to an aerosol consisting of a suspension of lipopolysaccharide (100 μg of LPS/ml of 0.1% hydroxylamine solution) in PBS (LPS provocation). The LPS/hydroxylamine aerosol is generated using a compressed air (0.2 MPa)-driven nebulizer (Bird micro nebulizer, Palm Springs Calif., USA). The exposure time is 40 minutes, with normal controls likewise being nebulized for 40 minutes with an aerosol consisting of a 0.1% solution of hydroxylamine in PBS.
6 hours after the LPS provocation, there is a maximal and massive immigration of neutrophilic granulocytes into the lungs of the animals. At this time, the animals are anaesthetized with an overdose of ethylurethane (1.5 g/kg of body weight, given i.p.) and a bronchoalveolar lavage (BAL) is carried out using 3×4 ml of Hank's balance solution. The total cell count, and the number of neutrophilic granulocytes, in the pooled BAL liquid are then determined using an automatic haemocytometer (Bayer Diagnostics Technicon H1E). In the case of each animal, the neutrophils (NEUTRO) in the BAL are calculated in 10^6/animal: NEUTRO/μl×BAL recovery (ml)=NEUTRO/animal.
Two control groups (nebulization with a 0.1% hydroxylamine solution in PBS and nebulization with 100 μg of LPS/ml of 0.1% hydroxylamine solution in PBS) are included in each test. The percentage inhibition of the neutrophilia in the substance-treated experimental group is calculated using the following formula: {((LPSC−SC)−(LPSD−SC))/(LPSC−SC)}×100%=% inhibition
SC=control group treated with vehicle and challenged with 0.1% hydroxylamine solution; LPSC=control group treated with vehicle and challenged with LPS (100 μg/ml of 0.1% hydroxylamine solution); LPSD=experimental group treated with substance and challenged with LPS (100 μg/ml of 0.1% hydroxylamine solution)
The test substances are administered 2 hours prior to the LPS provocation, as a suspension in 10% polyethylene glycol 300 and 0.5% 5-hydroxyethyl cellulose orally or per inhalation as a mixture with lactose. The control groups are treated with the vehicle in accordance with the mode of administration used for the test substance.

SMILES	IC50 (PDE 4) [nM]	Inhibition of eosinophilia ([1]; 0.01 mg/kg i.t.)	Inhibition of eosinophilia ([1]; 0.1 mg/kg i.t.)	Inhibition of eosinophilia ([1]; 10 mg/kg i.p.) [%]	Inhibition of eosinophilia ([1]; 30 mg/kg p.o.) [%]	Inhibition of neutrophilia ([2]; 0.01 mg/kg i.t.)	Inhibition of neutrophilia ([2]; 0.1 mg/kg i.t.)	Inhibition of neutrophilia ([2]; 1 mg/kg p.o.) [%]	melting point	Inhibition of eosinophilia ([1]; 0.001 mg/kg i.t.) [%]	Inhibition of neutrophilia ([2]; 0.001 mg/kg i.t.) [%]
O=C(Nc1c(Cl)cncc1Cl)C(=O)c1cn(Cc2ccccc2Cl)c2c(O)cccc12 [Comparative Compound C, (N-3,5-dichloropyridin-4-yl)[1-(2-chlorobenzyl)-7-hydroxyindol-3-yl] glyoxylic acid amide]	0.6	no effect	62%	30	32	no effect	31%	34			
Cc1c(Cn2cc(C(=O)C(=O)Nc3c(Cl)cncc3Cl)c3cccc(O)c32)cccc1[N+](=O)[O-] [Compound 4, N-(3,5-dichloropyridine-4-yl)-[7-hydroxy-1-(2-methyl-3-nitrobenzyl)-indol-3-yl]-glyoxylic acid amide]	2								229 to 232 °C (dec.)		
O=C(Nc1c(Cl)cncc1Cl)C(=O)c1cn(Cc2c(F)cccc2F)c2c(O)cccc12 [Comparative Compound B, N-(3,5-dichloropyridin-4-yl)[1-(2,6-difluorobenzyl)-7-hydroxyindol-3-yl] glyoxylic acid amide]	2	no effect	35%	38	30	no effect	38%	31			
O=C(Nc1c(Cl)c[n+]([O-])cc1Cl)C(=O)c1cn(Cc2ccc(Cl)cc2[N+](=O)[O-])c2c(O)cccc12 [Compound 6, N-(3,5-dichloro-1-oxo-pyridine-4-yl)-[1-(4-chloro-2-nitrobenzyl)-7-hydroxyindol-3-yl]-glyoxylic acid amide]	4										
Cc1ccc([N+](=O)[O-])c(Cn2cc(C(=O)C(=O)Nc3c(Cl)cncc3Cl)c3cccc(O)c32)c1 [Compound 5, N-(3,5-dichloropyridine-4-yl)-[7-hydroxy-1-(5-methyl-2-nitrobenzyl)-indol-3-yl]-glyoxylic acid amide]	38								297 to 300 °C (dec.)		
O=C(Nc1c(Cl)cncc1Cl)C(=O)c1cn(Cc2cccc([N+](=O)[O-])c2)c2c(O)cccc12 [Comparative Compound A]	2		no effect	33	31		no effect	39			
O=C(Nc1c(Cl)cncc1Cl)C(=O)c1cn(Cc2c(F)cccc2[N+](=O)[O-])c2c(O)cccc12 [Compound 2, N-(3,5-dichloropyridine-4-yl)[1-(6-fluoro-2-nitrobenzyl)-7-hydroxyindole-3-yl)glyoxylic acid amide]	0.6								308 to 310 °C		
Cc1ccc(Cn2cc(C(=O)C(=O)Nc3c(Cl)cncc3Cl)c3cccc(O)c32)cc1[N+](=O)[O-] [Compound 3, N-(3,5-dichloropyridine-4-yl)-[7-hydroxy-1-(4-methyl-3-nitrobenzyl)-indol-3-yl]-glyoxylic acid amide]	8										
O=C(Nc1c(Cl)cncc1Cl)C(=O)c1cn(Cc2ccc(Cl)cc2[N+](=O)[O-])c2c(O)cccc12 [Compound 1, N-(3,5-dichloropyrdin-4-yl)-[1-(4-chloro-2-nitrobenzyl)-7-hydroxyindol-3-yl]glyoxylic acid amide]	0.9			57	51			49		55	51
